Where “and” joins values, the source holds several entries; their conditions need not be identical. Equal values may be shown once.
Columns and labels:
rabbit plasma = test: Prothrombin time in plasma of balloon angioplasty rabbits; assay type: in vivo; details: for Clotting Time (prothrombin time), individual animals: listed as DEGR-FVIIa
Method: (§1) The test drug delivery for the animals consisted of an initial bolus injection immediately prior to balloon angioplasty, followed by a continuous systemic infusion by osmotic pump via the internal jugular vein. The duration of the drug infusion was 3 days. The control animals received heparin, 150 U/kg IV bolus, prior to balloon angioplasty followed by saline infusion. The DEGR-FVIIa treated animals received a 1 mg/kg bolus injection followed by 50 μg/kg/hr infusion.
Prothrombin time and concentration of DEGR-FVIIa in the blood were determined at immediately pre-bolus injection of the test compound, 1 hr post bolus injection, and at 3 days at the end of continuous infusion. One to two mls of citrated plasma was obtained and the prothrombin times and antigen levels determined.
A standard clotting assay was used to monitor the prothrombin time in the control and DEGR-FVIIa-treated animals as follows. Twenty-five microliters of test rabbit plasma, collected with sodium citrate as anticoagulant, was added to 150 μl of TBS (20 mM Tris, pH 7.4, 150 mM NaCl). The samples were mixed and added to an Electra 800 Automated Coagulation Timer (Medical Laboratories Automation, Pleasantville, N.Y.). After incubation, 200 μl of thromboplastin preparation (Sigma Chemical) containing 25 mM CaCl2 was added to the plasma preparations. A concentration of thromboplastin that gave a clotting time of approximately 20 seconds in the control rabbit plasma was selected.

femoral artery lumen = test: Angiographic luminal diameter after balloon angioplasty in atherosclerotic rabbits; assay type: in vivo, rabbit
Method: as §1
For the placement of the osmotic pumps for continuous systemic infusion, anesthesia was induced in the animals as described above, and maintained throughout the procedure with additional IM injections of ketamine and Xylazine. Through a midline neck incision, the right internal jugular vein was isolated by blunt dissection and the distal end ligated. A silastic tube (PE-160) was introduced into the right internal jugular vein. A subcutanecus tunnel was created to pass the silastic tube. This tube was connected with the osmotic pump. The osmotic pump was implanted subcutaneously in the back of the rabbit. The right common carotid artery was isolated by blunt dissection and the distal end ligated. Via an arteriotomy, a 5F introducer was placed and advanced to the junction of the aortic arch. Blood was drawn for determination of hemostatic parameters, drugs and cholesterol levels. Twenty milligrams of xylocain was injected intraarterially. A control aortoilibfemoral angiogram was performed via a 5F Berman catheter positioned above the aortic bifurcation using 3-4 ml renographin injected over 3 seconds by hand.
Following balloon dilatation, the angioplasty catheter was withdrawn and the Berman catheter reintroduced to a position 3 cm above the aortic bifurcation. To minimize spasm 20 mg of lidocaine was given intraarterially. A post procedure angiogram was performed as described above. A 1 cm grid was positioned at the level of the femoral artery to calculate the actual diameter. The catheter was then removed. The right carotid artery was ligated with 3-0 silk and the wound sutured by layers. […]

DEGR-Factor VIIa: Recombinant human Factor VIIa with its active site derivatized by Dansyl-L-Glu-Gly-Arg-chloromethyl Ketone (DEGRck)
Plasma clotting time, Mean (rabbit plasma; 1 Hr POST ANGIO): 40.8
Plasma clotting time, Mean (rabbit plasma; 3 Days POST ANGIO): 21.06
Clotting Time (prothrombin time), individual animals (rabbit plasma; 1 hour after 1 mg/kg bolus, 50 μg/kg/hr infusion): 40.1 s and 34 s and 50 s and 33.3 s and 45.8 s and 41.6 s
Clotting Time (prothrombin time), individual animals (rabbit plasma; 3 days, end of 50 μg/kg/hr infusion): 18.3 s and 20.9 s and 21.7 s and 21 s and 21.2 s and 21.9 s and 22.4 s
Plasma clotting time, Mean (rabbit plasma; PRE-BLEED): 23.2
Clotting Time (prothrombin time), individual animals (rabbit plasma; Pretreatment (pre-bolus)): 22.5 s and 24.3 s and 24.7 s and 23.6 s and 20.6 s and 23.5 s
Mean MLD (femoral artery lumen; 21 Day Measurement): 1.393
Mean MLD (femoral artery lumen; Post-PTCA Measurement): 1.323
Mean MLD (femoral artery lumen; Pre-PTCA Measurement): 1.283

— patent US20040087498A1, “Modified factor VII” (Novo Nordisk Health Care AG, priority 1991, published 2004)
